Results as given in patent publication US8188046B2, “Amyloid beta peptides and methods of use” (University of South Florida, priority 2006, dated 2012).

Tests used:
[1] = tested on: BALB/c mice; test: Mouse anti-Abeta IgG isotyping (Th1/Th2 response); assay type: in vivo; conditions: n=4; for Anti-Abeta antibody isotype: peptide vaccination without adjuvant
Text: To further confirm the inflammation issue, we detected type one and type two T cell response by using the mouse anti-Abeta IgG isotyping method. […] (see FIG. 10).

[2] = tested on: mice; test: T cell epitope mapping: antibody production after vaccination with DCs treated with Abeta fragments (FIG. 11); assay type: in vivo, mouse; conditions: two vaccinations with DCs, 1×10^6 cells/mice, treated with 20 μg/million cell; ELISA 1:800 dilutions
Text: FIG. 11. Mapping result of T cell epitope with Abeta fragment carrying Dutch mutation by ELISA.

[3] = tested on: patients aged 50 to 85 years with probable AD; conditions: with adjuvant QS-21 and polysorbate 80, cited from earlier work
[4] = tested on: BALB/c mice; test: Antibody titer by ELISA after adjuvant-free subcutaneous Abeta peptide vaccination; assay type: in vivo, mouse; conditions: boost 50 ug/mice six months post third inoculation; ELISA 10 days later; no adjuvant
Protocol: Peptides: Aβ 1-42 and related peptides were obtained from Synpep (Dublin, Calif.). Peptides for vaccination were reconstituted to 10 mg/ml in DMSO and further diluted to 2 mg/ml with phosphate buffered saline.
Mice: 10 weeks old female BALB/c mice from the Jackson laboratories were housed in Varian standard cages including amber igloos and vaccinated when 14 weeks old. A total of 28 mice were grouped into 7 vaccination groups each with four animals. Differently mutated Aβ1-42 peptides were used for each group and a 1×PBS (also containing 10% DMSO) as a control group. Initial subcutaneous vaccination began at 100 μg peptide in 100 μl VEHICLE and subsequent booster vaccinations proceeded at 100 μg peptide (100 μl) at two weeks intervals. A third inoculation was carried out with 50 μg peptide in 100 μl.
Bleeding and plasma collection procedures: 10 days after injection, mice were bled by submandibular phlebotomy into EDTA tubes, and plasma was separated by centrifugation at 1500 g for 20 minutes with StatSampler from StatSpin (MA). Plasma were isolated by centrifugation and frozen at −80° C.
Antibody titer determination: Anti-amyloid beta antibody (6E10) was purchased from Signet Laboratories (Dedham, Mass.) and used as positive control. […] Plates were read at 450 nm/630 nm, and samples with readings three times higher than controls were considered positive. […]

Row | Substance | Anti-Abeta antibody isotype [1] | Antibody production [2] | also measured
1 | PFM: Abeta 1-42 with Flemish mutation, aa16-24 KLVFFGEDV | IgG2a response |  | 
2 | PFDM: Abeta 1-42 with both Flemish and Dutch mutation, aa16-24 KLVFFGQDV | IgG2a response |  | 
3 | Abeta 1-25: Abeta fragment 1-25 [reference compound] |  | no antibody production | 
4 | AN1792: wild type amyloid beta 1-42 peptide used as a vaccine with adjuvant QS-21 and polysorbate 80 |  |  | Occurrence of meningoencephalitis, subset of patients ([3]; Phase II): 6%; Clinical benefits in follow up study of vaccinated patients [3]: reduced AD-like pathology and improved cognition
5 | DAEFRHDSGYEVHHQKLVFFAQDVGSNKGAIIGLM [Abeta 1-35 carrying Dutch mutation, Aβ 1-35 with Dutch mutation] |  | antibody production | 
6 | PDM: Abeta 1-42 with Dutch mutation, aa16-24 KLVFFAQDV |  |  | Long term antibody and memory response after boost [4]: induce long term antibody response and with a good memory response; Th response by antibody isotyping with adjuvant ([1]; adjuvant MPL treated vaccine compared to no adjuvant): adjuvant clearly induces a Th1 response
